Measured values taken from patent US20240384350A1, “METHODS OF TREATING CANCER WITH KINASE INHIBITORS” (BOARD OF REGENTS, THE UNIVERSITY OF TEXAS SYSTEM, priority 2021, published 2024).

Key:
Test in all cases: Ba/F3 drug screening, Cell Titer Glo, IC50 Mut/WT
Type in all cases: cell-based
EGFR S784F = target: T1, EGFR S784F (Homo sapiens, UniProt P00533, S784F); conditions: Classical-Like, 72 hours
T1 construct: expressed in transfected cells; host or cells: Ba/F3 cells, retroviral pBabe-Puro vector (vector made by GeneScript from EGFR WT)

EGFR L858R/V834L = target: T2, EGFR L858R/V834L (Homo sapiens, UniProt P00533, L858R/V834L); conditions: Classical-Like, 72 hours
T2 construct: expressed in transfected cells; host or cells: Ba/F3 cells, retroviral pBabe-Puro vector
Procedure: (§1) Data represent the ratio of the IC50 value for a given TKI for cells with a classical-like EGFR mutation to the IC50 value for cells with wildtype EGFR.
(§2) Ba/F3 cell generation, drug screening, and IC50 approximations. Ba/F3 cells were obtained as a gift from Dr. Gordon Mills (MD Anderson Cancer Center), and maintained in RPMI (Sigma) containing 10% FBS, 1% penicillin/streptomycin, and 10 ng/ml recombinant mIL-3 (R&D Biosystems). To establish stable Ba/F3 cell lines, Ba/F3 cells were transduced with retroviruses containing mutant EGFR plasmids for 12-24 hours.
(§3) After 48-72 hours of transduction, 2 μg/ml puromycin (Invitrogen) was added to Ba/F3 cell lines in complete RPMI. To select for EGFR positive cell lines, cells were stained with PE-EGFR (Biolegend) and sorted by FACS. After sorting, EGFR positive cells were maintained in RPMI containing 10% FBS, 1% penicillin/streptomycin, and 1 ng/ml EGF to support cell viability. […] Shortly, cells were plated in 384-well plates (Greiner Bio-One) at 2000-3000 cells per well in technical triplicate. Seven different concentrations of TKIs or DMSO vehicle were added to reach a final volume of 40 μL per well. After 72 hours, 11 μL of Cell Titer Glo (Promega) was added to each well. Plates were incubated for a minimum of 10 minutes, and bioluminescence was determined using a FLUOstar OPTIMA plate reader (BMG LABTECH). Raw bioluminescence values were normalized to DMSO control treated cells, and values were plotted in GraphPad Prism. […] Drug screens were performed in technical triplicate on each plate and either duplicate or triplicate biological replicates.

EGFR Ex19del = target: T3, EGFR Ex19del (Homo sapiens, UniProt P00533, DEL746-750); conditions: Classical-Like, 72 hours
T3 construct: expressed in transfected cells; host or cells: Ba/F3 cells, retroviral pBabe-Puro vector

EGFR L858R = target: T4, EGFR L858R (Homo sapiens, UniProt P00533, L858R); conditions: Classical-Like, 72 hours
T4 construct: expressed in transfected cells; host or cells: Ba/F3 cells, retroviral pBabe-Puro vector

EGFR T725M = target: T5, EGFR T725M (Homo sapiens, UniProt P00533, T725M); conditions: Classical-Like, 72 hours
T5 construct: expressed in transfected cells; host or cells: Ba/F3 cells, retroviral pBabe-Puro vector (vector made by GeneScript from EGFR WT)
Procedure: as §1, §2, §3

EGFR S811F = target: T6, EGFR S811F (Homo sapiens, UniProt P00533, S811F); conditions: Classical-Like, 72 hours
T6 construct: expressed in transfected cells; host or cells: Ba/F3 cells, retroviral pBabe-Puro vector (vector made by GeneScript from EGFR WT)
Procedure: as §1, §2, §3

EGFR A763insLQEA = target: T7, EGFR A763insLQEA (Homo sapiens, UniProt P00533, INS763LQEA); conditions: Classical-Like, 72 hours
T7 construct: expressed in transfected cells; host or cells: Ba/F3 cells, retroviral pBabe-Puro vector

EGFR A767insASV = target: T8, EGFR A767insASV (Homo sapiens, UniProt P00533, DUP767-769); conditions: Ex20, 72 hours
T8 construct: expressed in transfected cells; host or cells: Ba/F3 cells, retroviral pBabe-Puro vector
Procedure: Data represent the ratio of the IC50 value for a given TKI for cells with an ex20ins EGFR mutation to the IC50 value for cells with wildtype EGFR.
as §2
(§4) After 48-72 hours of transduction, 2 μg/ml puromycin (Invitrogen) was added to Ba/F3 cell lines in complete RPMI. To select for EGFR positive cell lines, cells were stained with PE-EGFR (Biolegend) and sorted by FACS. After sorting, EGFR positive cells were maintained in RPMI containing 10% FBS, 1% penicillin/streptomycin, and 1 ng/ml EGF to support cell viability. Drug screening was performed as previously described^41,42. Shortly, cells were plated in 384-well plates (Greiner Bio-One) at 2000-3000 cells per well in technical triplicate. Seven different concentrations of TKIs or DMSO vehicle were added to reach a final volume of 40 μL per well. After 72 hours, 11 μL of Cell Titer Glo (Promega) was added to each well. Plates were incubated for a minimum of 10 minutes, and bioluminescence was determined using a FLUOstar OPTIMA plate reader (BMG LABTECH). Raw bioluminescence values were normalized to DMSO control treated cells, and values were plotted in GraphPad Prism. […] Drug screens were performed in technical triplicate on each plate and either duplicate or triplicate biological replicates. […] Statistical differences between groups were determined by ANOVA as described in the figure legends.

EGFR D770insNPG = target: T9, EGFR D770insNPG (Homo sapiens, UniProt P00533, INS770NPG); conditions: Ex20, 72 hours
T9 construct: expressed in transfected cells; host or cells: Ba/F3 cells, retroviral pBabe-Puro vector

EGFR L858R/T790M = target: T10, EGFR L858R/T790M (Homo sapiens, UniProt P00533, L858R/T790M); conditions: T790M-like-3S, 72 hours
T10 construct: expressed in transfected cells; host or cells: Ba/F3

EGFR E709_T710del insD = target: T11, EGFR E709_T710del insD (Homo sapiens, UniProt P00533, DEL709-709/T710D); conditions: Ba/F3 cells, EGFR E709_T710del insD (PACC), Mut/WT
T11 construct: expressed in transfected cells; host or cells: Ba/F3

EGFR E709K = target: T12, EGFR E709K (Homo sapiens, UniProt P00533, E709K); conditions: Ba/F3 cells, EGFR E709K (PACC), Mut/WT
T12 construct: expressed in transfected cells; host or cells: Ba/F3
Procedure: (§5) Data represent the ratio of the IC50 value for a given TKI for cells with a PACC EGFR mutation to the IC50 value for cells with wildtype EGFR.
as §2
(§6) After 48-72 hours of transduction, 2 μg/ml puromycin (Invitrogen) was added to Ba/F3 cell lines in complete RPMI. To select for EGFR positive cell lines, cells were stained with PE-EGFR (Biolegend) and sorted by FACS. After sorting, EGFR positive cells were maintained in RPMI containing 10% FBS, 1% penicillin/streptomycin, and 1 ng/ml EGF to support cell viability. Drug screening was performed as previously described^41,42. Shortly, cells were plated in 384-well plates (Greiner Bio-One) at 2000-3000 cells per well in technical triplicate. Seven different concentrations of TKIs or DMSO vehicle were added to reach a final volume of 40 μL per well. After 72 hours, 11 μL of Cell Titer Glo (Promega) was added to each well. Plates were incubated for a minimum of 10 minutes, and bioluminescence was determined using a FLUOstar OPTIMA plate reader (BMG LABTECH). Raw bioluminescence values were normalized to DMSO control treated cells, and values were plotted in GraphPad Prism. […] Drug screens were performed in technical triplicate on each plate and either duplicate or triplicate biological replicates.

EGFR L718V = target: T13, EGFR L718V (Homo sapiens, UniProt P00533, L718V); conditions: Ba/F3 cells, EGFR L718V (PACC), Mut/WT
T13 construct: expressed in transfected cells; host or cells: Ba/F3

EGFR G719S = target: T14, EGFR G719S (Homo sapiens, UniProt P00533, G719S); conditions: Ba/F3 cells, EGFR G719S (PACC), Mut/WT
T14 construct: expressed in transfected cells; host or cells: Ba/F3

EGFR G719A = target: T15, EGFR G719A (Homo sapiens, UniProt P00533, G719A); conditions: Ba/F3 cells, EGFR G719A (PACC), Mut/WT
T15 construct: expressed in transfected cells; host or cells: Ba/F3

EGFR G719A L861Q = target: T16, EGFR G719A L861Q (Homo sapiens, UniProt P00533, G719A/L861Q); conditions: Ba/F3 cells, EGFR G719A L861Q (PACC), Mut/WT
T16 construct: expressed in transfected cells; host or cells: Ba/F3
Procedure: as §5, §2, §6

EGFR L747S = target: T17, EGFR L747S (Homo sapiens, UniProt P00533, L747S); conditions: Ba/F3 cells, EGFR L747S (PACC), Mut/WT
T17 construct: expressed in transfected cells; host or cells: Ba/F3

EGFR K757R = target: T18, EGFR K757R (Homo sapiens, UniProt P00533, K757R); conditions: Ba/F3 cells, EGFR K757R (PACC), Mut/WT
T18 construct: expressed in transfected cells; host or cells: Ba/F3
Procedure: as §5, §2, §4

EGFR S768I V774M = target: T19, EGFR S768I V774M (Homo sapiens, UniProt P00533, S768I/V774M); conditions: Ba/F3 cells, EGFR S768I V774M (PACC), Mut/WT
T19 construct: host or cells: Ba/F3
Procedure: as §5, §2, §6

EGFR L858R/L718V = target: T20, EGFR L858R/L718V (Homo sapiens, UniProt P00533, L718V/L858R); conditions: Ba/F3 cells, EGFR L858R/L718V (PACC), Mut/WT
T20 construct: host or cells: Ba/F3
Procedure: as §5, §2, §6

EGFR Ex19del G724S = target: T21, EGFR Ex19del G724S (Homo sapiens, UniProt P00533, DEL746-750/G724S); conditions: Ba/F3 cells, EGFR Ex19del G724S (PACC), Mut/WT
T21 construct: expressed in transfected cells; host or cells: Ba/F3

EGFR L858R/L792H = target: T22, EGFR L858R/L792H (Homo sapiens, UniProt P00533, L792H/L858R); conditions: Ba/F3 cells, EGFR L858R/L792H (PACC), Mut/WT
T22 construct: expressed in transfected cells; host or cells: Ba/F3
Procedure: as §5, §2, §6

EGFR L858R/C797S = target: T23, EGFR L858R/C797S (Homo sapiens, UniProt P00533, C797S/L858R); conditions: Ba/F3 cells, EGFR L858R/C797S (PACC), Mut/WT
T23 construct: expressed in transfected cells; host or cells: Ba/F3
Procedure: as §5, §2, §6

EGFR Ex19del T854I = target: T24, EGFR Ex19del T854I (Homo sapiens, UniProt P00533, DEL746-750/T854I); conditions: Ba/F3 cells, EGFR Ex19del T854I (PACC), Mut/WT
T24 construct: expressed in transfected cells; host or cells: Ba/F3 (retroviral transduction, pBabe-Puro based vectors)

ratio of IC50 for cells with mutant EGFR to IC50 for cells with wildtype EGFR (Mut/WT) (EGFR S784F) | ratio of IC50 for cells with mutant EGFR to IC50 for cells with wildtype EGFR (Mut/WT) (EGFR L858R/V834L) | ratio of IC50 for cells with mutant EGFR to IC50 for cells with wildtype EGFR (Mut/WT) (EGFR L858R) | ratio of IC50 for cells with mutant EGFR to IC50 for cells with wildtype EGFR (Mut/WT) (EGFR T725M) | ratio of IC50 for cells with mutant EGFR to IC50 for cells with wildtype EGFR (Mut/WT) (EGFR S811F) | ratio of IC50 for cells with mutant EGFR to IC50 for cells with wildtype EGFR (Mut/WT) (EGFR A763insLQEA) | ratio of IC50 for cells with mutant EGFR to IC50 for cells with wildtype EGFR (Mut/WT) (EGFR A767insASV) | ratio of IC50 for cells with mutant EGFR to IC50 for cells with wildtype EGFR (Mut/WT) (EGFR D770insNPG) | ratio of IC50 for cells with mutant EGFR to IC50 for cells with wildtype EGFR (Mut/WT) (EGFR L858R/T790M) | ratio of the IC50 value for cells with a PACC EGFR mutation to the IC50 value for cells with wildtype EGFR (EGFR E709_T710del insD) | ratio of the IC50 value for cells with a PACC EGFR mutation to the IC50 value for cells with wildtype EGFR (EGFR E709K) | ratio of the IC50 value for cells with a PACC EGFR mutation to the IC50 value for cells with wildtype EGFR (EGFR L718V) | ratio of the IC50 value for cells with a PACC EGFR mutation to the IC50 value for cells with wildtype EGFR (EGFR G719S) | ratio of the IC50 value for cells with a PACC EGFR mutation to the IC50 value for cells with wildtype EGFR (EGFR G719A) | ratio of the IC50 value for cells with a PACC EGFR mutation to the IC50 value for cells with wildtype EGFR (EGFR G719A L861Q) | ratio of the IC50 value for cells with a PACC EGFR mutation to the IC50 value for cells with wildtype EGFR (EGFR L747S) | ratio of the IC50 value for cells with a PACC EGFR mutation to the IC50 value for cells with wildtype EGFR (EGFR K757R) | ratio of the IC50 value for cells with a PACC EGFR mutation to the IC50 value for cells with wildtype EGFR (EGFR S768I V774M) | ratio of the IC50 value for cells with a PACC EGFR mutation to the IC50 value for cells with wildtype EGFR (EGFR L858R/L718V) | ratio of the IC50 value for cells with a PACC EGFR mutation to the IC50 value for cells with wildtype EGFR (EGFR Ex19del G724S) | SMILES | also measured
0.01428 | 0.4038 | 0.1965 | 0.959 | 0.002871 | 0.03029 | 4.661 | 1.976 | 0.1777 | 0.03063 | 0.207 | 2.622 | 0.3756 | 0.1896 | 0.8044 | 4.201 | 0.1894 | 0.5809 | 1.64 | 3.178 | C=CC(=O)Nc1cc(Nc2nccc(-c3c[nH]c4ccccc34)n2)c(OC)cc1N(C)CCN(C)C [AZ5104] | ratio of IC50 for cells with mutant EGFR to IC50 for cells with wildtype EGFR (Mut/WT) (EGFR Ex19del): 0.03035; ratio of the IC50 value for cells with a PACC EGFR mutation to the IC50 value for cells with wildtype EGFR (EGFR L858R/L792H): 4.408; ratio of the IC50 value for cells with a PACC EGFR mutation to the IC50 value for cells with wildtype EGFR (EGFR L858R/C797S): 119.2; ratio of the IC50 value for cells with a PACC EGFR mutation to the IC50 value for cells with wildtype EGFR (EGFR Ex19del T854I): 1.699
0.245 | 0.003768 | 0.03702 | 0.004466 | 0.01158 | 0.1304 | 10.93 | 4.93 | 0.0336 | 0.5663 | 0.2612 | 0.6184 | 0.1555 | 0.362 | 1.406 | 1.007 | 0.349 | 0.7678 | 2.619 | 1.782 | C=CC(=O)Nc1cc(Nc2nccc(-n3cc(CN(C)C)c(-c4ccccc4)n3)n2)c(OC)cc1N1CCOCC1 [Lazertinib] | ratio of the IC50 value for cells with a PACC EGFR mutation to the IC50 value for cells with wildtype EGFR (EGFR L858R/L792H): 0.1416; ratio of the IC50 value for cells with a PACC EGFR mutation to the IC50 value for cells with wildtype EGFR (EGFR L858R/C797S): 28.05; ratio of the IC50 value for cells with a PACC EGFR mutation to the IC50 value for cells with wildtype EGFR (EGFR Ex19del T854I): 1.44
